Drawing on article PMC3072374, “Evolution of Vertebrate Transient Receptor Potential Vanilloid 3 Channels: Opposite Temperature Sensitivity between Mammals and Western Clawed Frogs” (PLoS Genetics, 2011), this text covers activation and EC50 for three molecules.

In one assay the target is T1, mouse TRPV3 (Mus musculus, UniProt Q8K424).
T1 construct: full-length channel from pcDNA3 subcloned into pOX+; cRNA injected into Xenopus laevis oocytes; homotetramer (known biology)
T1 sequence (Q8K424 1-791): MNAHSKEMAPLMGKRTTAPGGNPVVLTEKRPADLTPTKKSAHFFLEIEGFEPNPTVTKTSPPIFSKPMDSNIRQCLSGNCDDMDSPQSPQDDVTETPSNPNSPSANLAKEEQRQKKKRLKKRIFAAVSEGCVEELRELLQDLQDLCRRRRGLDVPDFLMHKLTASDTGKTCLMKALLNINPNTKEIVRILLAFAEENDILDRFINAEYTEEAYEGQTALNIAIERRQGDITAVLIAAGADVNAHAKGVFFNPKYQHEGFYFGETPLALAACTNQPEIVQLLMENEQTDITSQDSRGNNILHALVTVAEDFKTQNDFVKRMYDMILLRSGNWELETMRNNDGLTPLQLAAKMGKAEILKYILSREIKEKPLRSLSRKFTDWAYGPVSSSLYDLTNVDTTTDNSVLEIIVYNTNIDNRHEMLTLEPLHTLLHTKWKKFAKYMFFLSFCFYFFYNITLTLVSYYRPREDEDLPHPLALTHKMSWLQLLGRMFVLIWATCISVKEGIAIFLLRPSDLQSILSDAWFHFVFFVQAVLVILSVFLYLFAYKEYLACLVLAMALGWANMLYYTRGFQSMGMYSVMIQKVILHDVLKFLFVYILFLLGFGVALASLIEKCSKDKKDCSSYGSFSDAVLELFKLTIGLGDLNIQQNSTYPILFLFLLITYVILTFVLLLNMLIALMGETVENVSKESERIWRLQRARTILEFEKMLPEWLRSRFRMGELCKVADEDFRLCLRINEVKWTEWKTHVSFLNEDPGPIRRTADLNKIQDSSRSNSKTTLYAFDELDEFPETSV
Briefly: two-electrode voltage clamp in Xenopus laevis oocytes. The note with it: agonist. Format: cell-based.

The target in assay [1] is T2, western clawed frog TRPV3 (Xenopus tropicalis, UniProt A0A7D9NMJ5).
T2 construct: full-length native channel, 773 residues, cDNA cloned from toe RNA into pGEMHE; cRNA injected into Xenopus laevis oocytes; homotetramer (known biology)
T2 sequence (A0A7D9NMJ5 1-773): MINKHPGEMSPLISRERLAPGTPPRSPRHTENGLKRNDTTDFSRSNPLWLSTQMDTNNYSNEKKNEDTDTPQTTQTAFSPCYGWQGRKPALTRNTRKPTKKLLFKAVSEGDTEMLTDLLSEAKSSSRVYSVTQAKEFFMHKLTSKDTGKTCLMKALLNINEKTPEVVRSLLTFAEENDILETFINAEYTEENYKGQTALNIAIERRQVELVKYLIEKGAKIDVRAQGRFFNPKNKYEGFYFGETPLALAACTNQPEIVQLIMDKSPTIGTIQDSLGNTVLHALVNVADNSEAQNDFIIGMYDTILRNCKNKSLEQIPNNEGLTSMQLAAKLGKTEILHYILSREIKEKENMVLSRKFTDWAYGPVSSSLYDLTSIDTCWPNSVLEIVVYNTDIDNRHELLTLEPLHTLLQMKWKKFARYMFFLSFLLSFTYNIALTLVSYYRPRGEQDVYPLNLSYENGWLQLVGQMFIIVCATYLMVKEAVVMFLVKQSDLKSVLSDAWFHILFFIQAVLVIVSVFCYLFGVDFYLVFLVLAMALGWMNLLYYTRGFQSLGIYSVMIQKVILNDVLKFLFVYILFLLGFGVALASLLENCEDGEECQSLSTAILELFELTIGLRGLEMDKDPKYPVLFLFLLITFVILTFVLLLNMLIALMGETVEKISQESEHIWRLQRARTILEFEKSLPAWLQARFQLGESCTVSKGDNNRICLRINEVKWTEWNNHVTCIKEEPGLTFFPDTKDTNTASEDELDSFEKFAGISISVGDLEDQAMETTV
Briefly: two-electrode voltage clamp in Xenopus laevis oocytes, dose-response. Format: cell-based.

Take `CC12CCC(CC1=O)C2(C)C` (stereo not drawn) [camphor]: the activation entry on mouse TRPV3 (8 mM camphor) was “well known activators of mammalian TRPV3 (Figure 5F and 5G, Right)”.

Turning to `CC12CCC(CC1)C(C)(C)O2` [eucalyptol], the activation entry at mouse TRPV3 (10 mM eucalyptol) is “well known activators of mammalian TRPV3 (Figure 5F and 5G, Right)”.

Take `NCCOB(c1ccccc1)c1ccccc1` [2-APB]: the EC50 in assay [1] was 540 ± 240 µM.
